According to US4027039A (priority 1975, dated 1977):
Several values for one entry are separate records, joined by “and”; a condition that tells them apart may be missing. Equal entries are not always repeated. Where two headings read alike, the source gives them in different places.

Experiments:
Vaccinia virus = type: in vivo, rabbit; details: rabbit, in vivo; thiosemicarbazone
Influenza PR 8 virus [1] = assay: Influenza PR 8 in mice, oral; schedule by table; late read day 6 (Table 37), 7 (33, 36), 8 (32, 35, 47), 10 (38); control fraction 18/20 (Table 32), 19/20 (Table 35), else 100%; type: in vivo, mouse
Herpes virus [2] = assay: Herpes virus in chicken eggs, single dose 24 hours pre-infection; type: in vivo, chick embryo
Influenza PR 8 virus [3] = assay: Influenza PR 8 in mice, subcutaneous; late read day 6 (Table 37), 8 (Table 47); type: in vivo, mouse
Columbia SK Polio virus = type: in vivo, mouse
Vaccinia IHD virus = type: in vivo, mouse
Influenza PR 8 virus [4] = assay: Influenza PR 8 in mice, intravenous (Table 31); type: in vivo, mouse; details: total dose .2 μg
viral infections = assay: Antiviral screening in animals, general statements; details: mouse, in vivo
Herpes virus [5] = test system: Herpes virus
Influenza PR 8 virus [6] = assay: Influenza PR 8 in mice, drug in drinking water (Table 34); type: in vivo, mouse
[7] = total dose .000005 μg, thiosemicarbazone
[8] = total dose .00005 μg, listed as 2-butanone thiosemicarbazone
[9] = total dose .00005 μg, thiosemicarbazone

CCC(C)=NNC(N)=S [2-Butanone, thiosemicarbazone, 2-butanone, thiosemicarbazone]
effect on pox formation (Vaccinia virus): variable
No. animals surviving after 6-10 days (Influenza PR 8 virus [1]; total dose .000005 μg): 6
Survivors (Influenza PR 8 virus [1]; total dose .000005 μg): 0
No. animals surviving after 6-10 days (Influenza PR 8 virus [1]; [7]): 4
No. animals surviving when 100% (or given fraction) of controls are dead (Influenza PR 8 virus [1]; [7]): 2
Survivors (Influenza PR 8 virus [1]; [7]): 1
Survivors (Influenza PR 8 virus [1]; total dose .00005 μg): 4
No. animals surviving after 6-10 days (Influenza PR 8 virus [1]; [8]): 5
Survivors (Influenza PR 8 virus [1]; [8]): 2
No. animals surviving after 6-10 days (Influenza PR 8 virus [1]; [9]): 8 and 4
No. animals surviving when 100% (or given fraction) of controls are dead (Influenza PR 8 virus [1]; [9]): 4
No. animals surviving after 6-10 days (Influenza PR 8 virus [1]; total dose .0005 μg): 2
No. animals surviving when 100% (or given fraction) of controls are dead (Influenza PR 8 virus [1]; total dose .0005 μg): 1
Survivors (Influenza PR 8 virus [1]; total dose .0005 μg): 1
No. animals surviving after 6-10 days (Influenza PR 8 virus [1]; total dose .005 μg): 2
No. animals surviving when 100% (or given fraction) of controls are dead (Influenza PR 8 virus [1]; total dose .005 μg): 1
Survivors (Influenza PR 8 virus [1]; total dose .005 μg): 1
Survivors (Influenza PR 8 virus [1]; total dose .005 μg, thiosemicarbazone): 0
Deaths on day 1 (Herpes virus [2]; 2 μg): 1
Deaths on day 2 (Herpes virus [2]; 2 μg): 5
Deaths on day 3 (Herpes virus [2]; 2 μg): 3
No. dying 5-22 day (Herpes virus [2]; 2 μg): 2
No. hatched (Herpes virus [2]; 2 μg): 1
No. living longer than controls (Herpes virus [2]; 2 μg): 3
Total deaths, 4th day (Herpes virus [2]; 2 μg): 9
Deaths on day 2 (Herpes virus [2]; 20 μg): 5
Deaths on day 3 (Herpes virus [2]; 20 μg): 1
Deaths on day 4 (Herpes virus [2]; 20 μg): 2
No. dying 5-22 day (Herpes virus [2]; 20 μg): 1
No. living longer than controls (Herpes virus [2]; 20 μg): 4
Total deaths, 4th day (Herpes virus [2]; 20 μg): 8
Deaths on day 1 (Herpes virus [2]; .00005 μg): 2
Deaths on day 2 (Herpes virus [2]; .00005 μg): 4
Deaths on day 3 (Herpes virus [2]; .00005 μg): 5
No. dying 5-22 day (Herpes virus [2]; .00005 μg): 0
No. hatched (Herpes virus [2]; .00005 μg): 1
No. living longer than controls (Herpes virus [2]; .00005 μg): 1
Total deaths, 4th day (Herpes virus [2]; .00005 μg): 11
Deaths on day 1 (Herpes virus [2]; .0005 μg): 1
Deaths on day 2 (Herpes virus [2]; .0005 μg): 5
Deaths on day 3 (Herpes virus [2]; .0005 μg): 3
Deaths on day 4 (Herpes virus [2]; .0005 μg): 1
No. dying 5-22 day (Herpes virus [2]; .0005 μg): 0
No. hatched (Herpes virus [2]; .0005 μg): 1
No. living longer than controls (Herpes virus [2]; .0005 μg): 2
Total deaths, 4th day (Herpes virus [2]; .0005 μg): 10
Deaths on day 1 (Herpes virus [2]; .005 μg): 2
Deaths on day 2 (Herpes virus [2]; .005 μg): 4
Deaths on day 3 (Herpes virus [2]; .005 μg): 2
Deaths on day 4 (Herpes virus [2]; .005 μg): 3
No. dying 5-22 day (Herpes virus [2]; .005 μg): 0
No. living longer than controls (Herpes virus [2]; .005 μg): 1
Total deaths, 4th day (Herpes virus [2]; .005 μg): 11
Deaths on day 1 (Herpes virus [2]; .05 μg): 2
Deaths on day 2 (Herpes virus [2]; .05 μg): 6
Deaths on day 3 (Herpes virus [2]; .05 μg): 3
No. dying 5-22 day (Herpes virus [2]; .05 μg): 1
No. living longer than controls (Herpes virus [2]; .05 μg): 1
Total deaths, 4th day (Herpes virus [2]; .05 μg): 11
Deaths on day 1 (Herpes virus [2]; .5 μg): 1
Deaths on day 2 (Herpes virus [2]; .5 μg): 3
Deaths on day 3 (Herpes virus [2]; .5 μg): 6
Deaths on day 4 (Herpes virus [2]; .5 μg): 2
No. dying 5-22 day (Herpes virus [2]; .5 μg): 0
No. living longer than controls (Herpes virus [2]; .5 μg): 0
Total deaths, 4th day (Herpes virus [2]; .5 μg): 12
Total no. hatched (Herpes virus [2]; all doses): 5
Total no. living longer than controls (Herpes virus [2]; all doses): 12
No. animals surviving after 6-8 days (Influenza PR 8 virus [3]; total dose .000005 μg): 2
Survivors (Influenza PR 8 virus [3]; total dose .000005 μg): 0
Survivors (Influenza PR 8 virus [3]; total dose .00005 μg): 0
No. animals surviving after 6-8 days (Influenza PR 8 virus [3]; total dose .0005 μg): 1
Survivors (Influenza PR 8 virus [3]; total dose .0005 μg): 1
Survivors (Influenza PR 8 virus [3]; total dose .005 μg): 0
No. animals surviving after 5 days (Columbia SK Polio virus; total dose 3 ng): 7
Survivors (Columbia SK Polio virus; total dose 3 ng): 0
No. animals surviving after 5 days (Columbia SK Polio virus; total dose 30 ng): 8
Survivors (Columbia SK Polio virus; total dose 30 ng): 0
No. animals surviving after 5 days (Columbia SK Polio virus; total dose 300 ng): 6
Survivors (Columbia SK Polio virus; total dose 300 ng): 1
Statistical Significance of Tail Lesions (Vaccinia IHD virus; 10 ng, day 5): < .05
Statistical Significance of Tail Lesions (Vaccinia IHD virus; 10 ng, day 6): < .01
Statistical Significance of Tail Lesions (Vaccinia IHD virus; 10 ng, day 7): < .05
Statistical Significance of Tail Lesions (Vaccinia IHD virus; 10 ng, day 10): < .01
Statistical Significance of Tail Lesions (Vaccinia IHD virus; 10 ng, day 11): < .01
Statistical Significance of Tail Lesions (Vaccinia IHD virus; 10 ng, day 12): < .01
Statistical Significance of Tail Lesions (Vaccinia IHD virus; 10 ng, day 14): < .01
Statistical Significance of Tail Lesions (Vaccinia IHD virus; 10 ng, day 17): < .01
Statistical Significance of Tail Lesions (Vaccinia IHD virus; 10 ng, day 21): < .01
Statistical Significance of Tail Lesions (Vaccinia IHD virus; 1 μg, day 5): < .01
Statistical Significance of Tail Lesions (Vaccinia IHD virus; 1 μg, day 6): < .01
Statistical Significance of Tail Lesions (Vaccinia IHD virus; 1 μg, day 7): < .05
Statistical Significance of Tail Lesions (Vaccinia IHD virus; 1 μg, day 8): < .01
Statistical Significance of Tail Lesions (Vaccinia IHD virus; 1 μg, day 10): < .01
Statistical Significance of Tail Lesions (Vaccinia IHD virus; 1 μg, day 11): < .01
Statistical Significance of Tail Lesions (Vaccinia IHD virus; 1 μg, day 12): < .01
Statistical Significance of Tail Lesions (Vaccinia IHD virus; 1 μg, day 14): < .01
Statistical Significance of Tail Lesions (Vaccinia IHD virus; 1 μg, day 17): < .01
Statistical Significance of Tail Lesions (Vaccinia IHD virus; 1 μg, day 21): < .01
Statistical Significance of Tail Lesions (Vaccinia IHD virus; 10 [μg], day 6): < .01
Statistical Significance of Tail Lesions (Vaccinia IHD virus; 10 [μg], day 7): < .05
Statistical Significance of Tail Lesions (Vaccinia IHD virus; 10 [μg], day 8): < .05
Statistical Significance of Tail Lesions (Vaccinia IHD virus; 10 [μg], day 10): < .01
Statistical Significance of Tail Lesions (Vaccinia IHD virus; 10 [μg], day 11): < .05
Statistical Significance of Tail Lesions (Vaccinia IHD virus; 10 [μg], day 12): < .05
Statistical Significance of Tail Lesions (Vaccinia IHD virus; 10 [μg], day 14): < .05
Statistical Significance of Tail Lesions (Vaccinia IHD virus; 10 [μg], day 17): < .01
Statistical Significance of Tail Lesions (Vaccinia IHD virus; 10 [μg], day 21): < .01
Statistical Significance of Tail Lesions (Vaccinia IHD virus; 100 [ng], day 5): < .05
Statistical Significance of Tail Lesions (Vaccinia IHD virus; 100 [ng], day 6): < .01
Statistical Significance of Tail Lesions (Vaccinia IHD virus; 100 [ng], day 7): < .01
Statistical Significance of Tail Lesions (Vaccinia IHD virus; 100 [ng], day 8): < .01
Statistical Significance of Tail Lesions (Vaccinia IHD virus; 100 [ng], day 10): < .01
Statistical Significance of Tail Lesions (Vaccinia IHD virus; 100 [ng], day 11): < .01
Statistical Significance of Tail Lesions (Vaccinia IHD virus; 100 [ng], day 12): < .01
Statistical Significance of Tail Lesions (Vaccinia IHD virus; 100 [ng], day 14): < .01
Statistical Significance of Tail Lesions (Vaccinia IHD virus; 100 [ng], day 17): < .01
Statistical Significance of Tail Lesions (Vaccinia IHD virus; 100 [ng], day 21): < .01
activity in words (Vaccinia IHD virus; mouse, in vivo): most active of the compounds tested
No. animals surviving when 18/20 of controls are dead (Influenza PR 8 virus [4]): 2
Survivors (Influenza PR 8 virus [4]): 2
activity in words (viral infections): one of the most active compounds
Survivors (Herpes virus [5]; mouse, in vivo): 2
No. animals surviving after 6-9 days (Herpes virus [5]; total dose .000005 μg): 1
No. animals surviving when 100% (or given fraction) of controls are dead (Herpes virus [5]; total dose .000005 μg): 0
Survivors (Herpes virus [5]; total dose .000005 μg): 0
No. animals surviving after 6-9 days (Herpes virus [5]; total dose .00005 μg): 8
No. animals surviving when 100% (or given fraction) of controls are dead (Herpes virus [5]; total dose .00005 μg): 4
No. animals surviving after 6-9 days (Herpes virus [5]; total dose .0005 μg): 6
No. animals surviving when 100% (or given fraction) of controls are dead (Herpes virus [5]; total dose .0005 μg): 5
Survivors (Herpes virus [5]; total dose .0005 μg): 4
No. animals surviving after 6-9 days (Herpes virus [5]; total dose .005 μg): 4
No. animals surviving when 100% (or given fraction) of controls are dead (Herpes virus [5]; total dose .05 μg): 0
Survivors (Herpes virus [5]; total dose .05 μg): 0
Survivors (Influenza PR 8 virus [6]; 0.5 Mg/ml in water, 24 h pre and 24 h post): 1
Survivors (Influenza PR 8 virus [6]; 10 Mg/ml in water, 24 h pre and 24 h post): 2
Survivors (Influenza PR 8 virus [6]; 24 h post-infection only, first of two printed columns): 0
